# From publication PMC11615292, “Fast-diffusing receptor collisions with slow-diffusing peptide ligand assemble the ternary parathyroid hormone–GPCR–arrestin complex” (Nature Communications, 2024)
# Assays:
# βarr2L69C-BIM = biological target: T1, βarr2L69C-BIM (Homo sapiens, UniProt P32121, C126S/C141L/C151V/C17S/C243V/C252V/C270S/C409S/C60V/L69C); assay: bimane fluorescence titration, single-site fit; format: binding
# T1 construct: gene ARRB2; Cys-less full-length βarr2 with L69C in finger loop, labelled with monobromobimane at C69; E. coli NiCo21(DE3), pET-15b; N-terminal 6xHis-3C removed by 3C protease, GG-AviTag-GGSGGS linker kept
# Description: bimane fluorescence titration, single-site fit on βarr2L69C-BIM | PIP3 binds βarr2 with higher affinity than PIP2 and induces a conformational change | Like PIP2 and V2Rpp, PIP3 induced a concentration-dependent increase in bimane fluorescence
# [1] = biological target: PTH type 1 receptor C-terminally fused to monomeric NeonGreen (PTH1R^mNG) (human) (UniProt Q03431)
# PTH type 1 receptor C-terminally fused to monomeric NeonGreen (PTH1R^mNG) (human), sequence (Q03431 27-593): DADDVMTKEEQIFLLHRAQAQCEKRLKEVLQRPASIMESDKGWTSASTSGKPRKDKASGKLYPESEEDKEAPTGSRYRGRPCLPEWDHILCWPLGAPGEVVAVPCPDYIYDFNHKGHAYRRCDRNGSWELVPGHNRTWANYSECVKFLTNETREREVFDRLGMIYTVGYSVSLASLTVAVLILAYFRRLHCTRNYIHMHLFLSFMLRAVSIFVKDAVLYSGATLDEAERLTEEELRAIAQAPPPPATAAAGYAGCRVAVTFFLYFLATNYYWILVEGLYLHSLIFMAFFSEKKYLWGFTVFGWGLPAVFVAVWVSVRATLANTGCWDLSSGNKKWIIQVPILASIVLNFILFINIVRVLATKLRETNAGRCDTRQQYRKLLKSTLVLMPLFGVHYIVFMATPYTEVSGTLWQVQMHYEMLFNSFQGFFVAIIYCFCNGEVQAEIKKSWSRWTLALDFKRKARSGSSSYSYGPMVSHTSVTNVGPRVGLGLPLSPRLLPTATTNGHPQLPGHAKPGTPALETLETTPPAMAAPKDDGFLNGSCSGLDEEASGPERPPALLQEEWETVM
# T1 sequence (P32121 whole entry C17S/C60V/L69C/C126S/C141L/C151V/C243V/C252V/C270S/C409S): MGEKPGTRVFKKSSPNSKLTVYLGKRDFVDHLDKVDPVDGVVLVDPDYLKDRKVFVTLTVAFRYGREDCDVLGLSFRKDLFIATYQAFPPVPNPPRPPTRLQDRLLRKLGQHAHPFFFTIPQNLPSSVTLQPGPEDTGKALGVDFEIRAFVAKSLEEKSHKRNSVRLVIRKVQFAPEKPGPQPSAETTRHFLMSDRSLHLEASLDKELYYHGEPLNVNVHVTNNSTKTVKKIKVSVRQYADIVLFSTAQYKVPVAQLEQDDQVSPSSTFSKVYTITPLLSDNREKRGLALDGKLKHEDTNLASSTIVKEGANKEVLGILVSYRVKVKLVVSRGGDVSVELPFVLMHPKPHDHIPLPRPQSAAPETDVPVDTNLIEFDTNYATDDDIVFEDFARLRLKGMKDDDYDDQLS
Molecule,Kd (βarr2L69C-BIM),"average diffusion coefficient (D) of PTH1R^mNG molecules in the presence of PTH^TMR (0.088 µm^2/s in the absence of the ligand), single-molecule tracking [1]"
"CCCCCCCC(=O)OC[C@H](COP(=O)(O)O[C@H]1[C@H](O)[C@@H](OP(=O)(O)O)[C@H](OP(=O)(O)O)[C@@H](OP(=O)(O)O)[C@H]1O)OC(=O)CCCCCCC [diC8-PI(3,4,5)P3]",15.5 ± 2.6 µM,
"CCCCCCCC(=O)OC[C@H](COP(=O)(O)O[C@@H]1[C@H](O)[C@H](O)[C@@H](OP(=O)(O)O)[C@H](OP(=O)(O)O)[C@H]1O)OC(=O)CCCCCCC [di-C8-PI(4,5)P2]",64.8 ± 16.8 µM,
PTH(1-34) labeled in position 13 with tetramethylrhodamine (PTH^TMR) (peptide),,0.02 µm^2/s
